Test results as given in the supplement of paper PMC11451515.

Tested on: NOMO1
Test: cell viability relative to DMSO control; higher = less cytotoxic
Details: 48 h
In short: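 Leukemia cells (NOMO1 or SEM, 500 cells/well; P12-Ichikawa, 1000 cells/well) were seeded in 5 μl in 1536-well plates after at least four passages of adaptation to each medium. They received library compounds in DMSO by pin dosing, 11 threefold points from 47 μM to 0.79 nM. Luminescence with CellTiter-Glo One was read after 48 h at 37°C. Viability is stated per plate relative to DMSO wells, with cell-free wells as background.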

[1] = HPLM + 10% dialyzed FBS, 0.000781 µM
[2] = HPLM + 10% dialyzed FBS, 0.00234 µM
[3] = HPLM + 10% dialyzed FBS, 0.00702 µM
[4] = HPLM + 10% dialyzed FBS, 0.0211 µM
[5] = HPLM + 10% dialyzed FBS, 0.0632 µM
[6] = HPLM + 10% dialyzed FBS, 0.19 µM
[7] = HPLM + 10% dialyzed FBS, 0.569 µM
[8] = HPLM + 10% dialyzed FBS, 1.71 µM
[9] = HPLM + 10% dialyzed FBS, 5.12 µM
[10] = HPLM + 10% dialyzed FBS, 15.4 µM
[11] = HPLM + 10% dialyzed FBS, 46.1 µM
[12] = RPMI 5 mM glucose + 10% FBS, 0.000781 µM
[13] = RPMI 5 mM glucose + 10% FBS, 0.00234 µM
[14] = RPMI 5 mM glucose + 10% FBS, 0.00702 µM
[15] = RPMI 5 mM glucose + 10% FBS, 0.0211 µM
[16] = RPMI 5 mM glucose + 10% FBS, 0.0632 µM
[17] = RPMI 5 mM glucose + 10% FBS, 0.19 µM
[18] = RPMI 5 mM glucose + 10% FBS, 0.569 µM
[19] = RPMI 5 mM glucose + 10% FBS, 1.71 µM
[20] = RPMI 5 mM glucose + 10% FBS, 5.12 µM
[21] = RPMI 5 mM glucose + 10% FBS, 15.4 µM
[22] = RPMI 5 mM glucose + 10% FBS, 46.1 µM
[23] = RPMI 5 mM glucose + 10% dialyzed FBS, 0.000781 µM
[24] = RPMI 5 mM glucose + 10% dialyzed FBS, 0.00234 µM
[25] = RPMI 5 mM glucose + 10% dialyzed FBS, 0.00702 µM
[26] = RPMI 5 mM glucose + 10% dialyzed FBS, 0.0211 µM
[27] = RPMI 5 mM glucose + 10% dialyzed FBS, 0.0632 µM
[28] = RPMI 5 mM glucose + 10% dialyzed FBS, 0.19 µM
[29] = RPMI 5 mM glucose + 10% dialyzed FBS, 0.569 µM
[30] = RPMI 5 mM glucose + 10% dialyzed FBS, 1.71 µM
[31] = RPMI 5 mM glucose + 10% dialyzed FBS, 5.12 µM
[32] = RPMI 5 mM glucose + 10% dialyzed FBS, 15.4 µM
[33] = RPMI 5 mM glucose + 10% dialyzed FBS, 46.1 µM

| SMILES | cell viability [1] [%] | cell viability [2] [%] | cell viability [3] [%] | cell viability [4] [%] | cell viability [5] [%] | cell viability [6] [%] | cell viability [7] [%] | cell viability [8] [%] | cell viability [9] [%] | cell viability [10] [%] | cell viability [11] [%] | cell viability [12] [%] | cell viability [13] [%] | cell viability [14] [%] | cell viability [15] [%] | cell viability [16] [%] | cell viability [17] [%] | cell viability [18] [%] | cell viability [19] [%] | cell viability [20] [%] | cell viability [21] [%] | cell viability [22] [%] | cell viability [23] [%] | cell viability [24] [%] | cell viability [25] [%] | cell viability [26] [%] | cell viability [27] [%] | cell viability [28] [%] | cell viability [29] [%] | cell viability [30] [%] | cell viability [31] [%] | cell viability [32] [%] | cell viability [33] [%] |
| --- | --- | --- | --- | --- | --- | --- | --- | --- | --- | --- | --- | --- | --- | --- | --- | --- | --- | --- | --- | --- | --- | --- | --- | --- | --- | --- | --- | --- | --- | --- | --- | --- | --- |
| N#Cc1ccnc(Nc2cc(C3CCN(C4COC4)CC3)cc(N3CCC(F)(F)C3)n2)c1 | 121 | 109 | 119 | 114 | 103 | 110 | 114 | 124 | 127 | 53.2 | 10.6 | 101 | 99.7 | 106 | 106 | 93.6 | 108 | 105 | 102 | 107 | 44.7 | 11.3 | 108 | 91.6 | 110 | 102 | 96.2 | 107 | 98.7 | 108 | 107 | 39.1 | 9.87 |
| CC(C)C[C@H](NC(=O)CNC(=O)c1cc(Cl)ccc1Cl)B(O)O | 88.3 | 104 | 106 | 33.1 | 125 | 92 | 20.4 | 9.39 | 4.5 | 4.57 | 4.02 | 81.1 | 88.8 | 100 | 16.8 | 104 | 86.2 | 19.7 | 7.24 | 5.18 | 4.14 | 2.67 | 98.5 | 94.2 | 108 | 33.5 | 96.9 | 107 | 28.3 | 8.85 | 5.16 | 4.61 | 2.91 |
| CC(/C=C/C(=O)NO)=C\[C@@H](C)C(=O)c1ccc(N(C)C)cc1 | 112 | 104 | 107 | 104 | 134 | 122 | 108 | 57 | 5.04 | 4.16 | 2.85 | 89.8 | 100 | 109 | 98.8 | 93.9 | 109 | 89.2 | 59.5 | 5.72 | 3.5 | 2.44 | 111 | 120 | 122 | 114 | 108 | 115 | 95.1 | 65 | 5.26 | 5 | 2.94 |
| Cn1c(=O)n(-c2ccc(C(C)(C)C#N)cc2)c2c3cc(-c4cnc5ccccc5c4)ccc3ncc21 | 99.4 | 99.2 | 105 | 97.5 | 91.2 | 89.2 | 61.1 | 37.4 | 41.9 | 33.9 | 32.2 | 103 | 114 | 104 | 102 | 106 | 99.9 | 89.8 | 52.4 | 28.7 | 19.8 | 27.1 | 102 | 120 | 111 | 112 | 94.9 | 73.4 | 66.4 | 49.3 | 33.7 | 22.6 | 30.5 |
| CNC[C@H](O)c1cccc(O)c1 | 92.9 | 92.1 | 98.8 | 36.8 | 111 | 103 | 109 | 110 | 99 | 113 | 122 | 78.1 | 86.8 | 94.7 | 26.9 | 93 | 89.4 | 90.6 | 92.8 | 88.6 | 102 | 99 | 78.3 | 88.4 | 98.3 | 32.9 | 98 | 102 | 101 | 87.7 | 82.3 | 91.1 | 103 |
| CN1c2ccccc2C(=O)N2CCc3c([nH]c4ccccc34)C21 (stereo unspecified) | 122 | 115 | 118 | 138 | 130 | 135 | 151 | 118 | 107 | 105 | 102 | 116 | 108 | 122 | 116 | 112 | 111 | 123 | 115 | 102 | 107 | 106 | – | – | – | – | – | – | – | – | – | – | – |
| C[S+](=O)([O-])c1ccc(C(=O)Nc2ccc(Cl)c(-c3ccccn3)c2)c(Cl)c1 | – | – | – | – | – | – | – | – | – | – | – | – | – | – | – | – | – | – | – | – | – | – | 119 | 110 | 138 | 143 | 130 | 136 | 139 | 144 | 144 | 135 | 128 |
| COc1ccc([C@@H]2CC(=O)c3c(O)cc(O[C@@H]4O[C@H](CO[C@@H]5O[C@@H](C)[C@H](O)[C@@H](O)[C@H]5O)[C@@H](O)[C@H](O)[C@H]4O)cc3O2)cc1O | 106 | 104 | 121 | 111 | 115 | 97.7 | 112 | 123 | 117 | 109 | 117 | 102 | 100 | 121 | 117 | 105 | 105 | 110 | 102 | 108 | 124 | 120 | 94.3 | 101 | 115 | 122 | 124 | 107 | 123 | 116 | 114 | 114 | 104 |
